Source: ChEMBL document CHEMBL1139021, “Synthesis of Tic-D-Phe Psi[CH2-CH2] isostere and its use in the development of melanocortin receptor agonists” (Bioorg Med Chem Lett, 2006)
Where a SMILES comes first, the peptide text is derived from it. [ ]: non-standard residue; d: D form. 2Nal = N[C@@H](Cc1ccc2ccccc2c1)C(=O)O

What was measured:
Melanocortin receptor 3 = Melanocortin receptor 3 (Homo sapiens, UniProt P41968); experiment: Binding affinity to MC3 receptor
Melanocortin receptor 4 [1] = target: T1, Melanocortin receptor 4 (Homo sapiens, UniProt P32245); experiment: Agonist potency at MC4 receptor; assay type: functional
[2] = target: Melanocyte-stimulating hormone receptor (Homo sapiens, UniProt Q01726); experiment: Binding affinity to MC1 receptor
Melanocortin receptor 4 [3] = target: T1, Melanocortin receptor 4; experiment: Binding affinity to MC4 receptor

Sequence of Melanocortin receptor 3 (P41968 whole entry): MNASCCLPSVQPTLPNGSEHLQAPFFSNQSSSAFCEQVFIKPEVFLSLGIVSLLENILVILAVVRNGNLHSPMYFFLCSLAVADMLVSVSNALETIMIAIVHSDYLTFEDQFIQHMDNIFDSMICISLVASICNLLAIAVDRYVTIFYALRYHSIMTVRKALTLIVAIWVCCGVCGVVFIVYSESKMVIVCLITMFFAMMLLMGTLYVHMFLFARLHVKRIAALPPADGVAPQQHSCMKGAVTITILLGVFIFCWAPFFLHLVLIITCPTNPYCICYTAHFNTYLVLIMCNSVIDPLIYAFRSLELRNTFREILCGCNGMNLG
Sequence of Melanocyte-stimulating hormone receptor (Q01726 whole entry): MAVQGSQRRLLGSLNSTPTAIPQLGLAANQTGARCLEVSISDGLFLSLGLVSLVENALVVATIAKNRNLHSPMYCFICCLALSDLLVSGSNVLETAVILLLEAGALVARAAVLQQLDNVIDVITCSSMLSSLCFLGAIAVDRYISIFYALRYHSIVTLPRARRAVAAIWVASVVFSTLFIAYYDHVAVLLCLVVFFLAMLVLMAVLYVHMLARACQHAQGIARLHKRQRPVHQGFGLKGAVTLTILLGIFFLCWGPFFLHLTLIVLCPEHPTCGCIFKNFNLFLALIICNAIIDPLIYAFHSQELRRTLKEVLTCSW
T1 sequence (P32245 whole entry): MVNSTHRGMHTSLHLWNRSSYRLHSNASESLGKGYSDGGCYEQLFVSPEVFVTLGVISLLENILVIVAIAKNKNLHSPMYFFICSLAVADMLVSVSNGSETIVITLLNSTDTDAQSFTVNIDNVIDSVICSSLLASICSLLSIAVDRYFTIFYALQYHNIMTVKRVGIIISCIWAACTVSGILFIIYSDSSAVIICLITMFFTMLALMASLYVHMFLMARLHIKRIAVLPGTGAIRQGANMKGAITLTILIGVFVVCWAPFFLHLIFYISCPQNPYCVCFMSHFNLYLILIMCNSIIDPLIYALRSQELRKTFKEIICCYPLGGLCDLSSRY

Row | Compound | Ki (Melanocortin receptor 3) [µM] | EC50 (Melanocortin receptor 4 [1]) [µM] | Emax (Melanocortin receptor 4 [1]) [%] | Ki [2] [µM] | Ki (Melanocortin receptor 4 [3]) [µM]
1 | CNC(=O)[C@H](Cc1ccc2ccccc2c1)NC(=O)[C@H](CCCN=C(N)N)NC(=O)[C@H](CC[C@H](Cc1ccccc1)NC(C)=O)Cc1ccc(F)cc1 | 55.5 | 0.02 | 102 | 23.4 | 0.037
2 | N=C(N)NCCC[C@H]1C[C@@H](OCc2ccccc2)CN1C(=O)[C@H](CC[C@H]1Cc2ccccc2CN1)Cc1ccccc1 | 0.382 | 0.142 | 76 | 0.071 | 0.076
3 | CNC(=O)[C@H](Cc1ccc2ccccc2c1)NC(=O)[C@H](CCCN=C(N)N)NC(=O)[C@H](CC[C@H](Cc1ccc(O)cc1)NC(C)=O)Cc1ccc(F)cc1 | 6.2 | 0.01 | 91 | 22.3 | 0.005
4 | CNC(=O)[C@H](Cc1ccc2ccccc2c1)NC(=O)[C@H](CCCN=C(N)N)NC(=O)[C@@H](Cc1ccccc1)NC(=O)[C@@H]1Cc2ccccc2CN1 | 1.63 | 0.01 | 81 | 2.28 | 0.024
5 | CNC(=O)[C@H](Cc1ccc2ccccc2c1)NC(=O)[C@H](CCCN=C(N)N)NC(=O)[C@H](CC[C@@H]1Cc2ccccc2CN1)Cc1ccccc1 | 2.41 | 0.16 | 77 | 3.99 | 0.22
6 | CNC(=O)[C@H](Cc1ccc2ccccc2c1)NC(=O)[C@H](CCCN=C(N)N)NC(=O)[C@H](CC[C@H](Cc1ccc(Cl)cc1)NC(C)=O)Cc1ccc(F)cc1 | 18 | 0.193 | 100 | 12.3 | 0.214

Further lines, results first:

Row | Ki (Melanocortin receptor 3) [µM] | EC50 (Melanocortin receptor 4 [1]) [µM] | Emax (Melanocortin receptor 4 [1]) [%] | Ki [2] [µM] | Ki (Melanocortin receptor 4 [3]) [µM] | Compound
7 | 1.73 | 0.044 | – | 4.52 | 0.104 | CNC(=O)[C@H](Cc1ccc2ccccc2c1)NC(=O)[C@H](CCCN=C(N)N)NC(=O)[C@@H](Cc1ccccc1)NC(=O)[C@H](Cc1ccc(O)cc1)NC(C)=O (Ac-Y[dF]R[2Nal]-NHMe)
8 | 0.468 | 0.022 | 89 | 0.03 | 0.013 | N=C(N)NCCC[C@H]1C[C@@H](OCc2ccccc2)CN1C(=O)[C@@H](Cc1ccccc1)NC(=O)C1Cc2ccccc2CN1 (single isomer, unassigned)
9 | 0.023 | 0.008 | 84 | 0.009 | 0.01 | CC(=O)N[C@H](Cc1ccc(O)cc1)C(=O)N[C@H](Cc1ccccc1)C(=O)N1C[C@H](OCc2ccccc2)C[C@@H]1CCCN=C(N)N
10 | 24.7 | 0.038 | 90 | 8.56 | 0.214 | CNC(=O)[C@H](Cc1ccc2ccccc2c1)NC(=O)[C@H](CCCN=C(N)N)NC(=O)[C@H](CC[C@H](Cc1ccc(O)cc1)NC(C)=O)Cc1ccccc1
